Assay results from a melting point compilation (Tetko et al.; mined from patent text by program, amines drawn as free bases though some values may be those of a salt).

SMILES	melting point [°C]
O=C(O)CN1CC2(CCCCC2)N(c2ccccc2)CC1=O	167 to 169
NC(=O)c1c(F)ccc(F)c1N	121 to 123
CONC(=N)NC(=O)Nc1c(C)cccc1C	78 to 80
CCOC(=O)c1cn(C2CC2)c2cc(-c3cc(C4OCC(C)(C)CO4)cc(OC)c3OC)c(F)cc2c1=O	178 to 180
O=C(O)C=CC(=O)c1cccc([N+](=O)[O-])c1	199 to 201
CN(C)CCN(C)CC(=O)N1c2ccccc2N(C)C(=O)c2cnc(-c3ccccc3)nc21	125
CCCCc1nc2ccn(Cc3ccc(N)cc3)c(=O)c2n1Cc1ccc(-c2ccccc2C#N)cc1	223
CC1=C(C#N)C(=C(C#N)C#N)OC1(C)c1ccc(Cl)c(Cl)c1 (configuration not stated)	226 to 229
COc1ccc2cc([C@H](C)C(=O)OCC(=O)N3CCC(CCO[N+](=O)[O-])CC3)ccc2c1	83 to 85
O=C(O)C(S)=Cc1ccc(C(F)(F)F)o1	158
CC(C#CC1CC(Oc2ccc(F)cc2)C1)N(O)C(N)=O (configuration not stated)	125 to 127
O=[N+]([O-])c1ccc(C(Nc2ccccc2)P(=O)(Oc2ccccc2)Oc2ccccc2)cc1 (configuration not stated)	158 to 160
Nc1c(F)c(F)c(F)c(F)c1NC(=S)Nc1c(Cl)cccc1Cl	> 300
CN1C(=O)CC[C@]2(C)c3ccc(-c4ccc(C(F)(F)F)cc4)cc3CC[C@@H]12	86 to 89
COC(=O)COc1cccc2c(CNC(C)=O)coc12	139 to 140
CCOc1nc(SC)nc(N2CCS(=O)CC2)c1C=O	163
CC1=C(C)C(C)(OC(N)=O)N(c2ccc(Cl)c(Cl)c2)C1=O (configuration not stated)	141 to 142
O=C(COc1ccc(Cl)cc1Cl)C(=C1SCCCN1Cl)[N+](=O)[O-]	103 to 105
CCOC(Oc1cc(Cl)cc(Cl)c1)C(=O)O (configuration not stated)	83.5 to 86.5
CC1Cc2ccc(Br)cc2C(c2ccc(N)cc2)=NN1C(N)=O (configuration not stated)	218 to 221

SMILES	melting point [°C]
CN(C)c1ccc(C2CC3(C)C(O)CCC3C3CCC4=CC(=O)CCC4=C23)cc1 (configuration not stated)	166 to 167
CC(=O)N1CCN(N=Cc2ccc(F)cc2)CC1	88 to 90
C=CCn1c(=O)c2c(nc(/C=C/c3cc(OC)c(O)c(OC)c3)n2C)n(CC=C)c1=O	239 to 240
Cc1cc2c(-c3cccc(N)c3)c(CC(=O)Nc3ccc(Cl)cc3C(F)(F)F)c(=O)oc2cc1Cl	206 to 207
CN(C)C=CC(=O)c1cccc(N(C)C(=O)C2CCC2)c1	117 to 119
N#CC1(O)CCN(c2ncccc2F)CC1	76 to 78
N#CC(C#N)=C1N(CCCN2CCc3ccccc3C2)CCN1CCN1CCCCC1	79 to 81
O=C(O)c1[nH]c(=O)[nH]c(=O)c1[N+](=O)[O-]	> 300
CCN(C)C(=O)C1=CC(C)(C)Oc2ccc([N+](=O)[O-])cc21	121 to 124
CCOC(=O)C1C(C)=NC(N2CCCC2)=C(C(=O)OC(C)C)C1c1ccccc1C(F)(F)F (configuration not stated)	102
O=C1c2nccnc2C(Cl)N1c1ccc2ccc(Cl)nc2n1 (configuration not stated)	264
Nc1ccc(C(=O)N2CCCCCC2=O)cc1	156 to 158
COc1ccc(-c2ccc3c(c2)NC(=O)CC(c2cccc(-n4ccnc4)c2)=N3)cc1	207 to 208
OC1CCN(c2ncc(-c3ccc(Cl)cc3)cn2)CC1	168 to 170
COc1ccc(C(C#N)=C(C)C)cc1OC	93 to 95
C=C(C)Cc1c(C)c(NC(=O)CC(C)(C)C)c(C)c(Cc2ccc(C(C)C)cc2)c1O	124 to 125
COc1cc(N2C(=S)N3CCCCC3C2O)c(F)cc1Cl (configuration not stated)	208 to 215
CC(C)=CC(=O)On1cc(Cl)cn1	71
COc1ccc2c(CCC3CCN(C(=O)OC(C)(C)C)CC3)noc2c1	95 to 96
COC(=O)c1cc(Cl)c(NC(C)=O)cc1OC(C)=O	134 to 136

SMILES	melting point [°C]
CC1(c2ccccc2)C(=O)Nc2cc(Cl)c(Cl)cc2C1=O (configuration not stated)	213 to 214
COc1cc2cc(C(=O)O)[nH]c2c2c1OCCC2=O	312
CCc1nc(NCC(C)O)c2c(n1)c(C)nn2C (configuration not stated)	116 to 119
CC12CCC3c4ccc(O)cc4CCC3C1CC=C2c1cccnc1 (configuration not stated)	256 to 258
COc1ccc(C2C(Oc3ccccc3)C(=O)N2c2ccc(C(=O)O)cc2)cc1 (configuration not stated)	268
CCCNc1nc(N)cc(Cl)n1	92 to 94
Cn1cc(-c2ccccc2)c(=O)c(-c2ccco2)c1	191 to 192
Cn1c(C(F)(F)F)cc(=O)n(-c2cc(OCCOC=C(Cl)Cl)c(Cl)cc2F)c1=O	97 to 99
CN1C(=O)C2(COc3cc4c(cc32)OCCO4)c2c(-c3cc(O)[nH]n3)cccc21 (configuration not stated)	> 250
COC(=O)c1cc(Oc2c(Cl)cc(C(F)(F)F)cc2Cl)n[nH]1	114 to 116
CC(C)Oc1ccc(C(=O)O)c(C(=O)O)c1	116 to 118
Cc1c(C)c2ccc(OCCCN3CCN(Cc4ccc(Cl)cc4)CC3)cc2[nH]c1=O	143 to 144
CC1CCC2C(=O)N(NC(=O)CCc3cc(C(C)(C)C)c(O)c(C(C)(C)C)c3)C(=O)C2C1 (configuration not stated)	87 to 92
COc1ccc(CCCC(=O)NC(NC(=NC#N)Nc2cccnc2C)C(C)(C)C)cc1 (configuration not stated)	65 to 68
OC1(C2CCN(Cc3ccccc3)CC2)c2ccsc2CCn2ccnc21 (configuration not stated)	189
CC(C)(C)c1cc(C(c2ccccc2)N2CCCCC2)c(O)c(C(C)(C)C)c1 (configuration not stated)	140 to 141
O=C(CCc1c(C=C2C(=O)Nc3ccccc32)[nH]c2c1CCCC2)NCCN1CCOCC1	256 to 258
CCOC(=O)n1c(=S)[nH]c2ccc(Br)cc2c1=O	214
Cn1c(=O)oc2cc(CCBr)ccc21	104 to 106

Next, values leading:

melting point [°C]	SMILES
193 to 195	O=C1CCc2c(-c3ccncc3)sc(-c3ccc(F)cc3)c21
64 to 66	CCCOc1nc2ccc(Cl)cc2c(=O)n1CCC
125 to 126	CC(=NOCc1ccc2nonc2c1)c1ccc(O)c(F)c1
97 to 98	CCOC(=O)c1ccc2cccc(N)c2c1
101	N#Cc1ccc(OCc2ccccc2)c(O)c1
170 to 171	COc1ccc2c(c1)c(CC(=O)N(C)O)c(C)n2C(=O)c1ccc(Cl)cc1
251 to 252	COc1ccccc1Cc1cccc(-c2ncc3c(n2)CC(C)(C)CC3)n1
197 to 199	CC(=O)N1c2cscc2C(=O)N(C)c2ccccc21
217 to 218	Cc1nc2c(cc1C#CCO)c(=O)c(C(=O)NCc1ccc(Cl)cc1)cn2C
237 to 241	COc1cccc(CNC(=O)c2nc3scc(CCOc4ccc(C(=O)O)cc4)c3c(=O)[nH]2)c1
147 to 149	CCOC(=O)c1cnn(-c2c(F)cc(C(F)(F)F)cc2Cl)c1N
185 to 198	CN(C)CC(=O)OCC1CC(c2ccc(-c3ccc(N4C[C@H](Cn5ccnn5)OC4=O)cc3F)cn2)=NO1 (some centres not stated)
296 to 297	COc1ccc2cc3c(Cl)n[nH]c3nc2c1
216	Cc1ccc(C=NNC(=O)c2ccc(O)cc2)s1
250 to 251	Nc1ncc(C#Cc2ccc(Cl)cc2)c(Oc2ccc(O)cc2)n1
132	CCOC(=O)c1ccc(OCCC2CCN(c3ccc(F)nn3)CC2)cc1
160 to 162	CCCCc1cn(CC(C)C)c(=O)n1Cc1ccc(-c2ccccc2-c2nnn[nH]2)nc1
146 to 147	O=C(c1ccc(O)cc1)c1ccc(OCCO)cc1
80 to 85	C=CCc1c(OCC(=O)O)ccc2c(CCc3nc(-c4ccc(Cl)cc4Cl)oc3C(C)C)noc12
150 to 151	CC(C)n1cc(-c2c(-c3ccccc3F)nn3ccncc23)ccc1=O
187 to 188	O=c1ccn(CCO)c(C(O)c2ccc(F)cc2)c1O (configuration not stated)
78 to 86	COc1ccc(N=Cc2cc(OC)c(OC)c(OC)c2)cc1

melting point [°C]	SMILES
168 to 170	S=C(NC(=S)c1c(Cl)cccc1Cl)Nc1ccc(Cl)c(Cl)c1
107 to 109	CCOC(=O)Cc1ccc(NC(=O)Nc2ccccc2OC)cc1
124	CCOc1ccc(C2=NC[C@@H](O)[C@H](c3ccccc3)O2)cc1 (racemic)
168 to 169	CC(C)(C)OC(=O)Nc1ccc(-c2ccc(F)cc2)cc1NC(=O)CC(=O)c1sccc1Cl
219	COc1cc(C(=O)c2nc(C#N)c3ccccn23)ccc1[N+](=O)[O-]
73 to 76	O=C(O)Cc1cc(Cl)cc(Cl)c1OCCc1ccccc1
76 to 78	COc1ccc2ccc(O)c(Cl)c2c1
138 to 139	O=C(NCCOc1ccc(CC(OCc2ccccc2)C(=O)O)cc1)c1ccc(-c2ccccn2)cc1 (configuration not stated)
195	OCCOc1ccc(-c2nc(-c3ccccc3)nc(-c3ccccc3)n2)c(O)c1
221 to 225	CCOC(=O)Cc1c(-c2ccc(Cl)cc2)nn2cccnc12
171 to 176	CS(=O)(=O)c1ccc(-c2sc(-c3ccncc3)nc2-c2ccc(F)cc2)cc1
141 to 142	NC(=O)N(O)Cc1cc(Oc2ccc(Cl)cc2)cs1
75 to 76	CC(=O)c1ccc2c(c1)SC(C)(C)S2
175 to 176	CNc1cc(Oc2ccc3c(c2)CCCN3C(=O)Nc2ccc(C(C)(C)C)cc2)ncn1
87 to 88	CC(=O)c1ccc2c(c1)C(c1ncccc1C)CC(C)(C)O2 (configuration not stated)
167 to 171	CCOC(=O)/C=C/c1cc(-c2ccc(C)cc2)n(-c2ccc(S(N)(=O)=O)cc2)n1
151 to 153	O=C(NCc1ccccc1)c1ccnc(NC(=O)c2ccc(OC(F)(F)F)cc2)c1
164 to 166	CCCCN(Cc1ccc(-c2ccccc2-c2nnn[nH]2)cc1)c1nc(C)ncc1C(=O)OCC
155	CCOC(=O)Nc1cccc2c1CN(C)CC2c1ccc(Cl)cc1 (configuration not stated)
218 to 220	COc1ccc(C(=O)Nc2ccc(F)cc2)cc1NC(=S)Nc1cccc(C(=O)O)c1
148 to 150	CCCCOC(=O)COc1ccc(C(=O)N(C)c2ccccc2Sc2ccccc2-c2nnn[nH]2)cc1
